# Laboratory results reported in ChEMBL document CHEMBL1159108, “Synthesis and antimicrobial activity of 2-fluorophenyl-4,6-disubstituted [1,3,5]triazines” (2010).
# Experiments:
# Enterococcus faecium = assay: Antibacterial activity against vancomycin-resistant Enterococcus faecium ATCC 49624; format: functional
# Candida albicans [1] = assay: Antifungal activity against Candida albicans ATCC 10231; format: functional
# Candida albicans [2] = assay: Antifungal activity against Candida albicans ATCC 10231
# Bacillus cereus = assay: Antibacterial activity against Bacillus cereus ATCC 13061; format: functional
# [3] = test system: Staphylococcus epidermidis; assay: Antibacterial activity against methicillin-sensitive Staphylococcus epidermidis ATCC 155-U; format: functional
# Streptococcus pneumoniae [4] = assay: Antibacterial activity against Streptococcus pneumoniae; format: functional
# Staphylococcus aureus [5] = assay: Antibacterial activity against methicillin-resistant Staphylococcus aureus; format: functional
# Staphylococcus warneri = assay: Antibacterial activity against coagulase negative-susceptible Staphylococcus warneri; format: functional
# Staphylococcus aureus [6] = assay: Antibacterial activity against vancomycin-resistant Staphylococcus aureus; format: functional
# Cutibacterium acnes = assay: Antibacterial activity against Propionibacterium acnes; format: functional
# Staphylococcus cohnii = assay: Antibacterial activity against coagulase negative-susceptible Staphylococcus cohnii; format: functional
# Enterococcus faecalis = assay: Antibacterial activity against Enterococcus faecalis; format: functional
# Streptococcus pneumoniae [7] = assay: Antibacterial activity against multidrug-resistant Streptococcus pneumoniae; format: functional
Structure (SMILES),MIC (Enterococcus faecium) [µg/mL],MIC (Candida albicans [1]) [µg/mL],MIC (Candida albicans [2]) [µg/mL],MIC (Bacillus cereus) [µg/mL],MIC [3] [µg/mL],MIC (Streptococcus pneumoniae [4]) [µg/mL],MIC (Staphylococcus aureus [5]) [µg/mL],MIC (Staphylococcus warneri) [µg/mL],MIC (Staphylococcus aureus [6]) [µg/mL],MIC (Cutibacterium acnes) [µg/mL],MIC (Staphylococcus cohnii) [µg/mL],MIC (Enterococcus faecalis) [µg/mL],MIC (Streptococcus pneumoniae [7]) [µg/mL]
NCCCCCNc1nc(Nc2cccc(F)c2)nc(-c2cncc(F)c2)n1,32,> 100,> 100,32,32,,,,,,,,
NCCCCCCNc1nc(Nc2cccc(F)c2)nc(-c2cccc(F)c2)n1,4,16,16,16,2,,,,,,,,
NCCCCCNc1nc(Nc2ccc(F)cc2)nc(-c2cccnc2)n1,> 100,> 100,> 100,> 100,16,,,,,,,,
NCCCCCNc1nc(Nc2cccc(F)c2)nc(-c2cc(F)cc(F)c2)n1,8,16,16,16,4,,,,,,,,
CC(C)(CN)CNc1nc(Nc2cccc(F)c2)nc(-c2cccc(F)c2)n1,8,4,,8,2,,,,,,,,
Fc1cccc(Nc2nc(NC3CCCNC3)nc(-c3cccc(F)c3)n2)c1 (centres undefined),4,8,8,8,2,,,,,,,,
CC1(C)CC(Nc2nc(Nc3cccc(F)c3)nc(-c3cccc(F)c3)n2)CC(C)(C)N1,4,32,,4,2,,,,,,,,
NCC1CCC(CNc2nc(Nc3cccc(F)c3)nc(-c3cccc(F)c3)n2)CC1 (centres undefined),8,64,,8,8,,,,,,,,
NCC1(CNc2nc(Nc3cccc(F)c3)nc(-c3cccc(F)c3)n2)CCCC1,32,8,,32,16,,,,,,,,
NCCCCCNc1nc(Nc2cccc(F)c2)nc(-c2cccc(O)c2)n1,8,32,,8,8,,,,,,,,
NCCCCCNc1nc(-c2cccc(F)c2)nc(-c2cccc(F)c2)n1,8,4,,,2,,,,,,,,
NCCCCCNc1nc(NCCc2ccc(O)cc2)nc(-c2cccc(F)c2)n1,16,> 100,> 100,8,8,,,,,,,,
NCCN(CCN)c1nc(NCCc2ccc(O)cc2)nc(-c2cccc(F)c2)n1,8,> 100,> 100,8,4,,,,,,,,
NCCCCCNc1nc(NCCc2ccc(O)cc2)nc(-c2ccc(F)cc2)n1,,> 100,> 100,4,,,,,,,,,
NCCCCCNc1nc(NCCc2ccc(O)cc2)nc(Nc2ccc(F)cc2)n1,128,> 100,> 100,16,64,64,128,64,64,32,32,128,64
NCCCCCNc1nc(Nc2ccc(F)cc2)nc(-c2cccc(F)c2)n1,8,4,,4,2,,,,,,,,
NCCCCCNc1nc(Nc2cccc(F)c2)nc(-c2ccc(F)cc2)n1,8,4,,4,2,,,,,,,,
NCCCCCNc1nc(Nc2cccc(F)c2)nc(-c2ccccc2F)n1,8,16,,64,4,,,,,,,,
NCCCCCNc1nc(Nc2cccc(C(F)(F)F)c2)nc(-c2cccc(F)c2)n1,4,16,,16,8,,,,,,,,
NCCN(CCN)c1nc(NCCc2ccc(O)cc2)nc(-c2ccc(F)cc2)n1,16,32,,16,8,,,,,,,,
NCCCCCCCNc1nc(Nc2cccc(F)c2)nc(-c2cccc(F)c2)n1,16,64,,16,8,,,,,,,,
NCCCCCNc1nc(Nc2cccc(F)c2)nc(-c2cccc(F)c2)n1,4,8,8,8,8,8,8,4,8,16,2,8,8
NCc1ccc(CNc2nc(Nc3cccc(F)c3)nc(-c3cccc(F)c3)n2)cc1,8,16,,16,4,,,,,,,,
NCCCCCNc1nc(Nc2cccc(F)c2)nc(-c2cccnc2)n1,16,> 100,> 100,> 100,8,,,,,,,,
C[C@@H]1[C@H](O)[C@@H](C)/C=C/C=C/C=C/C=C/C=C/C=C/C=C/[C@H](O[C@@H]2O[C@H](C)[C@@H](O)[C@H](N)[C@@H]2O)C[C@@H]2O[C@](O)(C[C@@H](O)C[C@@H](O)[C@H](O)CC[C@@H](O)C[C@@H](O)CC(=O)O[C@H]1C)C[C@H](O)[C@H]2C(=O)O [AMPHOTERICIN B],,1,,,,,,,,,,,
O=C(O)c1cn(C2CC2)c2cc(N3CCNCC3)c(F)cc2c1=O [CIPROFLOXACIN],> 16,,,,> 16,> 16,> 16,> 16,> 16,0.5,0.12,> 16,1
CN[C@@H]1[C@H](O[C@H]2[C@H](O[C@H]3[C@H](O)[C@@H](O)[C@H](N=C(N)N)[C@@H](O)[C@@H]3N=C(N)N)O[C@@H](C)[C@]2(O)C=O)O[C@@H](CO)[C@H](O)[C@H]1O.CN[C@@H]1[C@H](O[C@H]2[C@H](O[C@H]3[C@H](O)[C@@H](O)[C@H](N=C(N)N)[C@@H](O)[C@@H]3N=C(N)N)O[C@@H](C)[C@]2(O)C=O)O[C@@H](CO)[C@H](O)[C@H]1O.O=S(=O)(O)O.O=S(=O)(O)O.O=S(=O)(O)O [STREPTOMYCIN SULFATE],> 16,,,8,> 16,,,,,,,,
